Reference: patent US9340590B2 (priority 2011, dated 2016)
Read-outs that look alike come from different tables or passages of the source. Positions of bridges follow the written chain, without caps; N, C: chain ends. Residues, ends and D or L forms follow the SMILES beside them.

What was measured:
hNav1.5 = hNav1.5 (Homo sapiens, UniProt Q14524); assay: cell-based; settings: IonWorks Quattro, read-out: IWQ Use Nav1.5
hNav1.3 = hNav1.3 (Homo sapiens, UniProt Q9NY46); assay: cell-based; settings: IonWorks Quattro, read-out: IWQ Use Nav1.3
hNav1.3, sequence (Q9NY46 whole entry, looked up): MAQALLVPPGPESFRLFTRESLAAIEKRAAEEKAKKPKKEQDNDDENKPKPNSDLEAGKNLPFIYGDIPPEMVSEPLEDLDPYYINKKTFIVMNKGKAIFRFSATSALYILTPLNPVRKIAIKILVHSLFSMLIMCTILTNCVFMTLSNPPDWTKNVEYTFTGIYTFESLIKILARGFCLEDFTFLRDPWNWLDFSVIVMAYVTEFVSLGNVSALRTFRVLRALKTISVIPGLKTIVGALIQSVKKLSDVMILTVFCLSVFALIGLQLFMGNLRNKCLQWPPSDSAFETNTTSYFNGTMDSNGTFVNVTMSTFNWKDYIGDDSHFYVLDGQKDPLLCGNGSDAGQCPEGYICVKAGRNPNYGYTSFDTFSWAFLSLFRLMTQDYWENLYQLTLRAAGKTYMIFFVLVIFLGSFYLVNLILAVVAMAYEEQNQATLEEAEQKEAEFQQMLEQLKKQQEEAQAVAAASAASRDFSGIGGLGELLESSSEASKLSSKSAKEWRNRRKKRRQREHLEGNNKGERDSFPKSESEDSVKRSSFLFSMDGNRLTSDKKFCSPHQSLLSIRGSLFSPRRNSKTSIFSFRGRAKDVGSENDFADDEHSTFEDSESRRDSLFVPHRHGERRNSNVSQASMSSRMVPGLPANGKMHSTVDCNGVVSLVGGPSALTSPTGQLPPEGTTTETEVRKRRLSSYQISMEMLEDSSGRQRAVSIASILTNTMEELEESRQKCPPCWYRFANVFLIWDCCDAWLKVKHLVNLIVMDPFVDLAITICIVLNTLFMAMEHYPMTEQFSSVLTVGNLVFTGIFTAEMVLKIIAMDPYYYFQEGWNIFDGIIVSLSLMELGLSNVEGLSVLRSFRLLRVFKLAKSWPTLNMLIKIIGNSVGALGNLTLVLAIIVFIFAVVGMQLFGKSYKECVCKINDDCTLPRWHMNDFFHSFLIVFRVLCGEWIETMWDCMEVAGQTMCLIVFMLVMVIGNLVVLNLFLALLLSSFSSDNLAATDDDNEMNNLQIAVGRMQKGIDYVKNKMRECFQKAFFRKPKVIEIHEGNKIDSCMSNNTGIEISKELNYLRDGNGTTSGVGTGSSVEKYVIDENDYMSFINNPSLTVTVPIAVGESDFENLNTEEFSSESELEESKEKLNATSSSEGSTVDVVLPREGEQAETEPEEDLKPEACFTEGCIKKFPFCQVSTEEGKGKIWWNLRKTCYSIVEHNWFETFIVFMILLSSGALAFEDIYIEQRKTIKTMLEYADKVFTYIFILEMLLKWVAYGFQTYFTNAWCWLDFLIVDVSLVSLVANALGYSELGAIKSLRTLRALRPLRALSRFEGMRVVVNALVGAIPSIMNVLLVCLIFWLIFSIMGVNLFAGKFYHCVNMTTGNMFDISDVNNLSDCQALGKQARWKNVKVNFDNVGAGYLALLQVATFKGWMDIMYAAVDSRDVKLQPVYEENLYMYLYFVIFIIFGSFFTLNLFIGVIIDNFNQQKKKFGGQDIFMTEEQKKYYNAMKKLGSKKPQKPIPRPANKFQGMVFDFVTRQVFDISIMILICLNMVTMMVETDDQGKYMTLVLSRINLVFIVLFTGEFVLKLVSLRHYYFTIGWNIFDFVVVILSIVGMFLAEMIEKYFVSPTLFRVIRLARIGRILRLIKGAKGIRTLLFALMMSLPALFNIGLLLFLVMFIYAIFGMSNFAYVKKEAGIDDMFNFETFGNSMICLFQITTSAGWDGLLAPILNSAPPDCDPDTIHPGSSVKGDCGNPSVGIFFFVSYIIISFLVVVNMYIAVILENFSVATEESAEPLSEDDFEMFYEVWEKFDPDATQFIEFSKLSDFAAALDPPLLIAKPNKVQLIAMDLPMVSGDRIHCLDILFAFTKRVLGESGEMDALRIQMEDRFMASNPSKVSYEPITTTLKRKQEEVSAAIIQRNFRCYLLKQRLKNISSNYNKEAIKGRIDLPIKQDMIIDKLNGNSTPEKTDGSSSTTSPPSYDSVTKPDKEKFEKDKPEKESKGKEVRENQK

hNav1.5, sequence (Q14524 whole entry, looked up): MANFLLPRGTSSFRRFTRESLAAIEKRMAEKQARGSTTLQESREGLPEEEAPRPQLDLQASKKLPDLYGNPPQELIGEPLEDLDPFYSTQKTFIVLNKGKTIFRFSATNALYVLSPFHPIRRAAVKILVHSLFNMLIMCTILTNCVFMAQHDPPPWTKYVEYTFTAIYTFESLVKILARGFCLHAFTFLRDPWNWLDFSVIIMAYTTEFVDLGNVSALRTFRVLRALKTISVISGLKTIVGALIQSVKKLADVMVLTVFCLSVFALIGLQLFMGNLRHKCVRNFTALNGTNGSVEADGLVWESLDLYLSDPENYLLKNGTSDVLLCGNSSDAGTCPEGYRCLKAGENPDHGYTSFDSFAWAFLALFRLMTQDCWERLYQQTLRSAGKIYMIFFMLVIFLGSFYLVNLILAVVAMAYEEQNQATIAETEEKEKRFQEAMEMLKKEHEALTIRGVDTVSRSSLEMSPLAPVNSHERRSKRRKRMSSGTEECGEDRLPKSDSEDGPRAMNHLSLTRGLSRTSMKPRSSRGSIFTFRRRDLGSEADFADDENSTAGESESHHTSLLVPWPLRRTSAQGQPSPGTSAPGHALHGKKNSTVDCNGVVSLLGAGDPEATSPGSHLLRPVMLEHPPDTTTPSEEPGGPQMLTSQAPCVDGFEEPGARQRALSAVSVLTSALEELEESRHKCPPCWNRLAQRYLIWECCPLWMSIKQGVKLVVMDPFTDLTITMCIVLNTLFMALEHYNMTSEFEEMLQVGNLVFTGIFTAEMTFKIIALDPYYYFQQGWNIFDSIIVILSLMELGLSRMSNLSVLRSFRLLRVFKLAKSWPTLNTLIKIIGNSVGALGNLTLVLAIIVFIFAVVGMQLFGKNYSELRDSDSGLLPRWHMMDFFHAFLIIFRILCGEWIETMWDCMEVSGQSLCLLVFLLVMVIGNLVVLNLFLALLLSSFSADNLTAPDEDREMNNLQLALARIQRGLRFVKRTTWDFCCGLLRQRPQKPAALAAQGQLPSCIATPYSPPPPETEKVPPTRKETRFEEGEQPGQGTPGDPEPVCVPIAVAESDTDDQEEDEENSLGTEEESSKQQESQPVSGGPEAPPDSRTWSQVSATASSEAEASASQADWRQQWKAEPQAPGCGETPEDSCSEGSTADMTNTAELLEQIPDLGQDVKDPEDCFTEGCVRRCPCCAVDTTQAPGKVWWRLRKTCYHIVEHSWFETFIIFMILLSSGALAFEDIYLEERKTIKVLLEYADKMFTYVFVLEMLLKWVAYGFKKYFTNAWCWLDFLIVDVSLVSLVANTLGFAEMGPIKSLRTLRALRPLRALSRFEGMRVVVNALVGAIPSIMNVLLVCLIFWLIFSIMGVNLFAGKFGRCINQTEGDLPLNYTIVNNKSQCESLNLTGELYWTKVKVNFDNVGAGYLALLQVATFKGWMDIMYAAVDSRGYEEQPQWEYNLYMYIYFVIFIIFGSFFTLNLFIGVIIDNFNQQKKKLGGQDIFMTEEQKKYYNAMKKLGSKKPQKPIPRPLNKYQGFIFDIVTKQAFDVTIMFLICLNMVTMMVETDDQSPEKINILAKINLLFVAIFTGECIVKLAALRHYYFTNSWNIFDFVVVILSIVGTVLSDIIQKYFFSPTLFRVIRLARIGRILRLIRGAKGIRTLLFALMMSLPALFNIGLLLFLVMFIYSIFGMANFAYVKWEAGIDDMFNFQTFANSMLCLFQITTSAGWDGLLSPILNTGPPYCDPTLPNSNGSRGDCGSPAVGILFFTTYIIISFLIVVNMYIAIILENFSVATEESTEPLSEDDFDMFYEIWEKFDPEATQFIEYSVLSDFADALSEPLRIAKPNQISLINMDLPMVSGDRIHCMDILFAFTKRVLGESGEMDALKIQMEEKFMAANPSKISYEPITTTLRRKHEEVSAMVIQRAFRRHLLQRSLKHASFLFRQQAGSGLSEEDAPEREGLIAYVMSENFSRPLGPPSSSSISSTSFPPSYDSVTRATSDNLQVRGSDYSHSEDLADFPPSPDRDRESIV

Row | Structure (SMILES) | IC50 (hNav1.5; Use) [µM] | IC50 (hNav1.3; Use) [µM] | other results
1 | CC[C@H](C)[C@@H]1NC(=O)[C@@H]2CSSC[C@@H]3NC(=O)[C@H](CCC(=O)O)NC(=O)[C@H](CC(C)C)NC(=O)[C@H](CC(N)=O)NC(=O)[C@@H]4CCCN4C(=O)[C@H](CCCNC(=N)N)NC(=O)[C@H](CSSC[C@H](NC(=O)[C@@H](N)CC(=O)O)C(=O)N[C@@H](CC(C)C)C(=O)NCC(=O)N[C@@H](Cc4ccccc4)C(=O)N[C@@H](CCSC)C(=O)N[C@@H](CCCNC(=N)N)C(=O)N[C@@H](CCCCN)C(=O)N2)NC(=O)[C@H](CSSC[C@@H](C(=O)N[C@@H](CCCCN)C(=O)N[C@@H](Cc2ccc(O)cc2)C(=O)N[C@H](C(=O)N[C@@H](Cc2ccccc2)C(N)=O)C(C)C)NC(=O)[C@H](Cc2c[nH]c4ccccc24)NC(=O)[C@H](CCCCN)NC(=O)[C@H](Cc2cnc[nH]2)NC(=O)[C@H]([C@@H](C)O)NC(=O)[C@H](CCCNC(=N)N)NC(=O)[C@H](CO)NC3=O)NC(=O)[C@H](CCCCN)NC(=O)[C@H](CC(=O)O)NC(=O)[C@H](CC(N)=O)NC(=O)[C@H](CC(=O)O)NC(=O)[C@@H]2CCCN2C1=O [compound 102] (H-DCLGFMRKCIPDNDKCCRPNLECSRTHKWCKYVF-NH2; disulfide 2-17, 9-23, 16-30) | 20.8 | 2.14 | –
2 | CC[C@H](C)[C@@H]1NC(=O)[C@@H]2CSSC[C@@H]3NC(=O)[C@H](C(C)C)NC(=O)[C@H](CC(C)C)NC(=O)[C@H](CC(N)=O)NC(=O)[C@@H]4CCCN4C(=O)[C@H](CCCNC(=N)N)NC(=O)[C@H](CSSC[C@H](NC(=O)[C@@H](N)CC(=O)O)C(=O)N[C@@H](CC(C)C)C(=O)NCC(=O)N[C@@H](Cc4ccccc4)C(=O)N[C@@H](CCSC)C(=O)N[C@@H](CCCNC(=N)N)C(=O)N[C@@H](CCCCN)C(=O)N2)NC(=O)[C@H](CSSC[C@@H](C(=O)N[C@@H](CCCCN)C(=O)N[C@@H](Cc2ccc(O)cc2)C(=O)N[C@H](C(=O)N[C@@H](Cc2ccccc2)C(=O)O)C(C)C)NC(=O)[C@H](Cc2c[nH]c4ccccc24)NC(=O)[C@H](CCCCN)NC(=O)[C@H](Cc2cnc[nH]2)NC(=O)[C@H]([C@@H](C)O)NC(=O)[C@H](CCCNC(=N)N)NC(=O)[C@H](CO)NC3=O)NC(=O)[C@H](CCCCN)NC(=O)[C@H](CC(=O)O)NC(=O)[C@H](CC(N)=O)NC(=O)[C@H](CC(=O)O)NC(=O)[C@@H]2CCCN2C1=O [compound 107] | – | – | IC50 (hNav1.5; use-dependent, […]): 9.44 µM; IC50 (hNav1.3; use-dependent, […]): 0.54 µM
3 | CC[C@H](C)[C@@H]1NC(=O)[C@@H]2CSSC[C@@H]3NC(=O)[C@H](C(C)C)NC(=O)[C@H](CC(C)C)NC(=O)[C@H](CC(N)=O)NC(=O)[C@@H]4CCCN4C(=O)[C@H](CCCNC(=N)N)NC(=O)[C@H](CSSC[C@H](NC(=O)[C@@H](N)CC(=O)O)C(=O)N[C@@H](CC(C)C)C(=O)NCC(=O)N[C@@H](Cc4ccccc4)C(=O)N[C@@H](CCSC)C(=O)N[C@@H](CCCNC(=N)N)C(=O)N[C@@H](CCCCN)C(=O)N2)NC(=O)[C@H](CSSC[C@@H](C(=O)N[C@@H](CCCCN)C(=O)N[C@@H](Cc2ccc(O)cc2)C(=O)N[C@H](C(=O)N[C@@H](Cc2ccccc2)C(N)=O)C(C)C)NC(=O)[C@H](Cc2ccc(O)cc2)NC(=O)[C@H](CCCCN)NC(=O)[C@H](Cc2c[nH]cn2)NC(=O)[C@H]([C@@H](C)O)NC(=O)[C@H](CCCNC(=N)N)NC(=O)[C@H](CO)NC3=O)NC(=O)[C@H](CCCCN)NC(=O)[C@H](CC(=O)O)NC(=O)[C@H](CC(N)=O)NC(=O)[C@H](CC(=O)O)NC(=O)[C@@H]2CCCN2C1=O [compound 113] (H-DCLGFMRKCIPDNDKCCRPNLVCSRTHKYCKYVF-NH2; disulfide 2-17, 9-23, 16-30) | – | – | IC50 (hNav1.5; Table 24, use, […]): 9.49 µM; IC50 (hNav1.3; Table 24, use, […]): 4.03 µM
4 | CC[C@H](C)[C@@H]1NC(=O)[C@@H]2CSSC[C@@H]3NC(=O)[C@H](C(C)C)NC(=O)[C@H](CC(C)C)NC(=O)[C@H](CC(N)=O)NC(=O)[C@@H]4CCCN4C(=O)[C@H](CCCNC(=N)N)NC(=O)[C@H](CSSC[C@H](NC(=O)[C@@H](N)CC(=O)O)C(=O)N[C@@H](CC(C)C)C(=O)NCC(=O)N[C@@H](Cc4ccccc4)C(=O)N[C@@H](CCSC)C(=O)N[C@@H](CCCNC(=N)N)C(=O)N[C@@H](CCCCN)C(=O)N2)NC(=O)[C@H](CSSC[C@@H](C(=O)N[C@@H](CCCCN)C(=O)N[C@@H](Cc2ccc(O)cc2)C(=O)N[C@H](C(=O)N[C@@H](Cc2ccccc2)C(N)=O)C(C)C)NC(=O)[C@H](Cc2c[nH]c4ccccc24)NC(=O)[C@H](CCCCN)NC(=O)[C@H](Cc2cnc[nH]2)NC(=O)[C@H]([C@@H](C)O)NC(=O)[C@H](CCCNC(=N)N)NC(=O)[C@H](C)NC3=O)NC(=O)[C@H](CCCCN)NC(=O)[C@H](CC(=O)O)NC(=O)[C@H](CC(N)=O)NC(=O)[C@H](CC(=O)O)NC(=O)[C@@H]2CCCN2C1=O [compound 142] (H-DCLGFMRKCIPDNDKCCRPNLVCARTHKWCKYVF-NH2; disulfide 2-17, 9-23, 16-30) | 8.2 | 0.25 | –
5 | CC[C@H](C)[C@@H]1NC(=O)[C@@H]2CSSC[C@@H]3NC(=O)[C@H](C(C)C)NC(=O)[C@H](CC(C)C)NC(=O)[C@H](CC(N)=O)NC(=O)[C@@H]4CCCN4C(=O)[C@H](CCC(=O)O)NC(=O)[C@H](CSSC[C@H](NC(=O)[C@@H](N)CC(=O)O)C(=O)N[C@@H](CC(C)C)C(=O)NCC(=O)N[C@@H](Cc4ccccc4)C(=O)N[C@@H](CCSC)C(=O)N[C@@H](CCCNC(=N)N)C(=O)N[C@@H](CCCCN)C(=O)N2)NC(=O)[C@H](CSSC[C@@H](C(=O)N[C@@H](CCCCN)C(=O)N[C@@H](Cc2ccc(O)cc2)C(=O)N[C@H](C(=O)N[C@@H](Cc2ccccc2)C(N)=O)C(C)C)NC(=O)[C@H](Cc2c[nH]c4ccccc24)NC(=O)[C@H](CCCCN)NC(=O)[C@H](Cc2cnc[nH]2)NC(=O)[C@H]([C@@H](C)O)NC(=O)[C@H](CCCNC(=N)N)NC(=O)[C@H](CO)NC3=O)NC(=O)[C@H](CCCCN)NC(=O)[C@H](CC(=O)O)NC(=O)[C@H](CC(N)=O)NC(=O)[C@H](CC(=O)O)NC(=O)[C@@H]2CCCN2C1=O [compound 148] (H-DCLGFMRKCIPDNDKCCEPNLVCSRTHKWCKYVF-NH2; disulfide 2-17, 9-23, 16-30) | 14.6 | 0.21 | –
6 | CC[C@H](C)[C@@H]1NC(=O)[C@@H]2CSSC[C@@H]3NC(=O)[C@H](C(C)C)NC(=O)[C@H](CC(C)C)NC(=O)[C@H](CC(N)=O)NC(=O)[C@H](CCCNC(=N)N)NC(=O)[C@H](CCCNC(=N)N)NC(=O)[C@H](CSSC[C@H](NC(=O)[C@@H](N)CC(=O)O)C(=O)N[C@@H](CC(C)C)C(=O)NCC(=O)N[C@@H](Cc4ccccc4)C(=O)N[C@@H](CCSC)C(=O)N[C@@H](CCCNC(=N)N)C(=O)N[C@@H](CCCCN)C(=O)N2)NC(=O)[C@H](CSSC[C@@H](C(=O)N[C@@H](CCCCN)C(=O)N[C@@H](Cc2ccc(O)cc2)C(=O)N[C@H](C(=O)N[C@@H](Cc2ccccc2)C(N)=O)C(C)C)NC(=O)[C@H](Cc2c[nH]c4ccccc24)NC(=O)[C@H](CCCCN)NC(=O)[C@H](Cc2cnc[nH]2)NC(=O)[C@H]([C@@H](C)O)NC(=O)[C@H](CCCNC(=N)N)NC(=O)[C@H](CO)NC3=O)NC(=O)[C@H](CCCCN)NC(=O)[C@H](CC(=O)O)NC(=O)[C@H](CC(N)=O)NC(=O)[C@H](CC(=O)O)NC(=O)[C@@H]2CCCN2C1=O [compound 157] (H-DCLGFMRKCIPDNDKCCRRNLVCSRTHKWCKYVF-NH2; disulfide 2-17, 9-23, 16-30) | 6.16 | 0.06 | –
